According to patent US20240148821A1, “PHARMACEUTICAL USE OF CYCLIC PEPTIDE COMPOUND” (CHUGAI SEIYAKU KABUSHIKI KAISHA, priority 2021, published 2024):
Numbered stars: 1 amine (or outer) side, 2 acyl side, 3 side chain; on linkers, the order of the positions; unused ones are H or OH. Bridge positions count the residues as written; N and C are the ends. Square brackets hold non-standard residues; d marks the D form. Peptide text beside a SMILES is read from it. * marks the point of attachment. hPhe(3,5-F2-4-CF3) = N[C@@H](CCc1cc(F)c(C(F)(F)F)c(F)c1)C(=O)O; hPhe(3-Cl-4-CF3) = N[C@@H](CCc1ccc(C(F)(F)F)c(Cl)c1)C(=O)O; NMePhe(4-CF3) = CN[C@@H](Cc1ccc(C(F)(F)F)cc1)C(=O)O; X120 = O=C([C@H](Cc1cc(F)cc(Br)c1)N[*:1])[*:2]; NEtPhe(4-Me) = CCN[C@@H](Cc1ccc(C)cc1)C(=O)O; NMeAbu(4,4,4-F3) = CN[C@@H](CC(F)(F)F)C(=O)O; NMePhe(4-Me) = CN[C@@H](Cc1ccc(C)cc1)C(=O)O; X110 = Cc1ccc(I)cc1C[C@H](N[*:1])C(=O)[*:2]; NMedβ3hAla = C[C@H](CC(=O)[*:2])N(C)[*:1]; NMeGly(cPent) = CN[C@H](C(=O)O)C1CCCC1; Phe(3-I) = N[C@@H](Cc1cccc(I)c1)C(=O)O; Pro(4,4-F2) = O=C(O)[C@@H]1CC(F)(F)CN1; NMeGly(cBu) = CN[C@H](C(=O)O)C1CCC1; NMeY = CN[C@@H](Cc1ccc(O)cc1)C(=O)O; NMeCha = CN[C@@H](CC1CCCCC1)C(=O)O; NMeChg = CN[C@H](C(=O)O)C1CCCCC1; NMeD = CN[C@@H](CC(=O)O)C(=O)O; NMeL = CN[C@@H](CC(C)C)C(=O)O; Chg = N[C@H](C(=O)O)C1CCCCC1; NMeAbu = CC[C@H](NC)C(=O)O; Morpholide = C1CN(*)CCO1; NMeA = CN[C@@H](C)C(=O)O; NMeAib = CNC(C)(C)C(=O)O; Nle = CCCC[C@H](N)C(=O)O; Piperidide = C1CCN(*)CC1; Pra = C#CC[C@H](N)C(=O)O; Pyrrolidide = C1CCN(*)C1; Ac5c = NC1(C(=O)O)CCCC1; Aze = O=C(O)[C@@H]1CCN1; Sar = CNCC(=O)O

What follows are compounds tested on Human pancreatic cancer cell line AsPC-1 (G12D mutation Kras) (assay: AsPC-1 cell growth inhibition (AsPC-1 CGI)). Settings: read-out: AsPC-1 cell growth inhibition, 50% growth inhibitory concentration (IC50 value); 96 hours, CellTiter-Glo, values classified in ranges.
Type: cell-based
Experimental: Test compounds were serially dilated with dimethyl sulfoxide, and 200 nL was then dispensed to a U-bottom 96-well plate using Labcyte Echo. […] The cell suspension was dispensed to a. plate containing a test compound at 100 μL per well and incubated at 37° C. in a 5% carbon dioxide gas incubator. 96 hours later, 80 μL of CellTiter-Glo (Promega) was added to each well and fluorescence was measured.
With `C#CC[C@@H]1NC(=O)[C@H](Cc2cccc(I)c2)NC(=O)CN(C)C(=O)[C@H](Cc2ccc(OC)cc2)N(C)C(=O)[C@@H]2CCN2C(=O)[C@H](C)N(C)C(=O)[C@H]([C@@H](C)CC)NC(=O)[C@H](CC(C)C)N(C)C(=O)C[C@@H](C(=O)N2CCCCC2)N(C)C(=O)[C@H](CC(C)C)NC(=O)C(C)(C)N(C)C1=O` [Compound 1350] ([NMeL]I[NMeA][Aze][NMeY](Me)[Sar][Phe(3-I)][Pra][NMeAib]L[NMeD]-Piperidide; lactam N-11) the IC50 was > 500 nM.
With `CC[C@H](C)[C@@H]1NC(=O)[C@H](CC(C)C)N(C)C(=O)C[C@@H](C(=O)N2CCCCC2)N(C)C(=O)[C@H](C2CCCCC2)NC(=O)C2(CCCC2)NC(=O)[C@@H]2CCCN2C(=O)[C@H](CCc2ccc(C(F)(F)F)c(Cl)c2)NC(=O)CN(C)C(=O)[C@H](CC2CCCCC2)N(C)C(=O)CN(C)C(=O)CN(C)C1=O` [Compound 1354] ([NMeL]I[Sar][Sar][NMeCha][Sar][hPhe(3-Cl-4-CF3)]P[Ac5c][Chg][NMeD]-Piperidide; lactam N-11) the IC50 was > 500 nM.
For `CC[C@H](C)[C@@H]1NC(=O)[C@H](CC(F)(F)F)N(C)C(=O)C[C@@H](C(=O)N2CCCC2)N(C)C(=O)[C@H](C2CCCCC2)N(C)C(=O)C2(CCCC2)NC(=O)[C@@H]2CC(F)(F)CN2C(=O)[C@H](CCc2ccc(C(F)(F)F)c(Cl)c2)NC(=O)CN(C)C(=O)[C@H](CC2CCCCC2)N(C)C(=O)CN(C)C(=O)CN(C)C1=O` [Compound 1357] ([NMeAbu(4,4,4-F3)]I[Sar][Sar][NMeCha][Sar][hPhe(3-Cl-4-CF3)][Pro(4,4-F2)][Ac5c][NMeChg][NMeD]-Pyrrolidide; lactam N-11), the IC50 was ≤ 20 nM.
`CCCC[C@@H]1NC(=O)[C@H](Cc2cc(I)ccc2C)NC(=O)CN(C)C(=O)[C@H](Cc2ccc(OC)cc2)N(C)C(=O)[C@@H]2CCN2C(=O)[C@H](C)N(C)C(=O)[C@H]([C@@H](C)CC)NC(=O)[C@H](CC)N(C)C(=O)C[C@@H](C(=O)N2CCCCC2)N(C)C(=O)[C@H](CC(C)C)NC(=O)C(C)(C)N(C)C1=O` [Compound 1358] ([NMeAbu]I[NMeA][Aze][NMeY](Me)[Sar][X110][Nle][NMeAib]L[NMeD]-Piperidide; lactam N-11) was tested, and the IC50 was > 500 nM.
With `C#CC[C@@H]1NC(=O)[C@H](Cc2cccc(I)c2)NC(=O)CN(C)C(=O)[C@H](Cc2ccc(C(F)(F)F)cc2)N(C)C(=O)CN(C)C(=O)CN(C)C(=O)[C@H]([C@@H](C)CC)NC(=O)[C@H](CC(C)C)N(C)C(=O)C[C@@H](C(=O)N2CCCCC2)N(C)C(=O)[C@H](CC(C)C)NC(=O)C(C)(C)N(C)C1=O` [Compound 1361] ([NMeL]I[Sar][Sar][NMePhe(4-CF3)][Sar][Phe(3-I)][Pra][NMeAib]L[NMeD]-Piperidide; lactam N-11) the IC50 was > 500 nM.
`CC[C@H](C)[C@@H]1NC(=O)[C@H](C2CCC2)N(C)C(=O)C[C@@H](C(=O)N2CCCC2)N(C)C(=O)[C@H](C2CCCCC2)N(C)C(=O)C2(CCCC2)NC(=O)[C@@H]2CC(F)(F)CN2C(=O)[C@H](CCc2ccc(C(F)(F)F)c(Cl)c2)NC(=O)CN(C)C(=O)[C@H](CC2CCCCC2)N(C)C(=O)CN(C)C(=O)CN(C)C1=O` [Compound 1363] ([NMeGly(cBu)]I[Sar][Sar][NMeCha][Sar][hPhe(3-Cl-4-CF3)][Pro(4,4-F2)][Ac5c][NMeChg][NMeD]-Pyrrolidide; lactam N-11) was tested, and the IC50 was ≤ 20 nM.
For `CC[C@H](C)[C@@H]1NC(=O)[C@H](CC(C)C)N(C)C(=O)C[C@@H](C(=O)N2CCOCC2)N(C)C(=O)[C@H](C2CCCC2)N(C)C(=O)C2(CCCC2)NC(=O)[C@@H]2CCCN2C(=O)[C@H](CCc2cc(F)c(C(F)(F)F)c(F)c2)NC(=O)CN(C)C(=O)[C@H](Cc2ccc(C)cc2)N(CC)C(=O)[C@@H]2CCN2C(=O)[C@H](C)N(C)C1=O` [Compound 1368] ([NMeL]I[NMeA][Aze][NEtPhe(4-Me)][Sar][hPhe(3,5-F2-4-CF3)]P[Ac5c][NMeGly(cPent)][NMeD]-Morpholide; lactam N-11), the IC50 was ≤ 20 nM.
`CCCC[C@@H]1NC(=O)[C@H](Cc2cc(F)cc(Br)c2)NC(=O)CN(C)C(=O)[C@H](Cc2ccc(OC)cc2)N(C)C(=O)[C@@H]2CCN2C(=O)[C@H](C)N(C)C(=O)[C@H]([C@@H](C)CC)NC(=O)[C@H](CC)N(C)C(=O)C[C@@H](C(=O)N2CCCCC2)N(C)C(=O)[C@H](CC(C)C)NC(=O)C(C)(C)N(C)C1=O` [Compound 1372] ([NMeAbu]I[NMeA][Aze][NMeY](Me)[Sar][X120][Nle][NMeAib]L[NMeD]-Piperidide; lactam N-11) was tested, and the IC50 was > 500 nM.
`CC[C@H](C)[C@@H]1NC(=O)[C@H](C)N(C)C(=O)C[C@@H](C)N(C)C(=O)[C@H](CC(C)C)NC(=O)C(C)(C)N(C)C(=O)[C@H](CC(C)C)NC(=O)[C@H](CCc2ccc(C(F)(F)F)c(Cl)c2)NC(=O)CN(C)C(=O)[C@H](Cc2ccc(C)cc2)N(C)C(=O)[C@@H]2CCN2C(=O)CN(C)C1=O` [Compound 1377] (cyclo([Aze][NMePhe(4-Me)][Sar][hPhe(3-Cl-4-CF3)]L[NMeAib]L[NMedβ3hAla][NMeA]I[Sar])) was tested, and the IC50 was > 500 nM.
